In patent US5798391A, “Injectable solution of benzalkonium fluoride” (Aromafarm Limited, priority 1994, dated 1998):
Read-outs that look alike come from different tables or passages of the source.

How the values were obtained:
[1] = test system: HERPES SIMPLEX VIRUS TYPE 1; assay: virucidal activity of BKF, AFNOR T72-180, molecular screening (Table 4); type: cell-based, Herpes Simplex Virus Type 1 (HSV 1); conditions: 32° C.
E[…] 1 = type: cell-based, polio enterovirus 1, SABIN strain; conditions: 32° C.
dogs (beagles) = conditions: dog, in vivo
Carre's disease = assay: treatment of dogs suffering from Carre's disease; type: in vivo, dog
Experimental: The invention was used to treat dogs suffering from Carre's disease. This disease, considered fatal and without treatment, is due to an ultravirus.
Twelve dogs were treated with one 10 ml ampoule of benzalkonium fluoride solution at 2.1 g/l for 20 kg of animal. The injection was given once per day for three days. The dogs also had associated treatment (vitamins, antibiotics, vaccines, etc.).

mice = assay: LD 50, unique administration, Behrens and Karber method, mice; type: in vivo, albino mouse
Experimental: The high toxicity of benzalkonium fluoride in unique administration in mice and guinea pigs was determined by the Behrens and Karber method, by intracardiac, intravenous and intraperitoneal injection. The animals used were young adult albino mice and albino guinea pigs. Ten animals were used for each dose administered, five males and five females. The benzalkonium fluoride was used in a 3 g/l isotonic solution of sterile apyrogenic sodium chloride. We observed the animals for 7 days after unique administration carried out using a sterile needle adapted to a syringe graduated in 1/10 ml to allow the treatment of each animal with an exact dose. The animals were weighed each day during the observation period.
The LD 50 (lethal dose 50) was determined.

[2] = test system: HERPES SIMPLEX VIRUS TYPE 2; assay: virucidal activity of BKF, AFNOR T72-180, molecular screening (Table 5); type: cell-based, Herpes Simplex Virus Type 2 (HSV 2); conditions: 32° C.
[3] = female German Pointer 12 kg, same treatment

CCCCCCCCCCCCCC[N+](C)(C)Cc1ccccc1.[F-] [benzalkonium fluoride, tetradecyl-dimethyl-benzyl-ammonium fluoride]
virucidal activity: minimal contact time ([1]; 0.01% (m/V)): 5 min
Viral Titration ([1]; 0.01% (m/V), 30 minutes): 0 PFU/ml
Viral Titration ([1]; 0.01% (m/V), 60 minutes): 0 PFU/ml
Viral Titration ([1]; 0.01% (m/V), 120 minutes): 0 PFU/ml
Viral Titration ([1]; 0.02% (m/V), 15 minutes): 0 PFU/ml
Viral Titration ([1]; 0.02% (m/V), 30 minutes): 0 PFU/ml
Viral Titration ([1]; 0.02% (m/V), 60 minutes): 0 PFU/ml
Viral Titration ([1]; 0.02% (m/V), 120 minutes): 0 PFU/ml
virucidal activity: minimal concentration (reduction by logarithmic factor of at least 4) ([1]; 5 minutes contact): 0.01 % (m/V)
virucidal activity: minimal contact time (E[…] 1; 0.01% (m/V)): 30 min
Viral Titration (E[…] 1; 0.01% (m/V), 30 minutes): 0 PFU/ml
Viral Titration (E[…] 1; 0.01% (m/V), 60 minutes): 0 PFU/ml
Viral Titration (E[…] 1; 0.01% (m/V), 120 minutes): 0 PFU/ml
Viral Titration (E[…] 1; 0.02% (m/V), 120 minutes): 0 PFU/ml
virucidal activity: minimal concentration (reduction by logarithmic factor of at least 4) (E[…] 1; 30 minutes contact): 0.01 % (m/V)
blood in the urine, male (dogs (beagles)): a high level of blood in the urine
blood in urine from bladder, male (dogs (beagles)): no trace of blood
blood in urine, male (dogs (beagles)): absence of blood
glucose in urine, male (dogs (beagles)): absence of glucose
haemolysis in urine samples, female (dogs (beagles)): no signs of h.ae butted.molysis
histological examination of the various organs (dogs (beagles)): no alteration due to treatment
ketonic bodies in urine, male (dogs (beagles)): traces of ketonic bodies
number of leukocytes (dogs (beagles)): increased
proteins in urine, male (dogs (beagles)): traces of proteins
urine sodium and potassium, female (dogs (beagles)): remained almost stable
urine sodium and potassium, male (dogs (beagles)): showed variations
dogs with nervous symptoms (Carre's disease; five other dogs, generalised trembling): could not be treated
dogs saved (Carre's disease; of twelve dogs, 10 ml of 2.1 g/l per 20 kg once per day, three days, associated treatment): effective for seven dogs who were saved
total recovery (Carre's disease; seven dogs saved): 18 days
LD 50 (mice; female mouse, intraperitoneal): 34.60 mg/mL
LD 50 (mice; female mouse, intravenous): 36.60 mg/mL
acute toxicity, overall (mice; intravenous, intraperitoneal or intracardiac injection, mice and guinea pigs): sufficiently low toxicity
LD 50 (mice; male mouse, intraperitoneal): 33.10 mg/mL
LD 50 (mice; male mouse, intravenous): 33.24 mg/mL
virucidal activity: minimal contact time ([2]; 0.01% (m/V)): 15 min
Viral Titration ([2]; 0.01% (m/V), 60 minutes): 0 PFU/ml
Viral Titration ([2]; 0.01% (m/V), 120 minutes): 0 PFU/ml
Viral Titration ([2]; 0.02% (m/V), 15 minutes): 0 PFU/ml
Viral Titration ([2]; 0.02% (m/V), 30 minutes): 0 PFU/ml
Viral Titration ([2]; 0.02% (m/V), 60 minutes): 0 PFU/ml
Viral Titration ([2]; 0.02% (m/V), 120 minutes): 0 PFU/ml
virucidal activity: minimal concentration (reduction by logarithmic factor of at least 4) ([2]; 15 minutes contact): 0.01 % (m/V)
tolerance (parvovirus; dog, in vivo): excellent
normal eating (parvovirus; [3]): 4 days
total recovery confirmed (parvovirus; [3]): 18 days
total recovery (parvovirus; female German Shepherd 10 kg, 10 ml then 20 ml, associated treatment 8 days): 20 days
complete recovery (parvovirus; female Rottweiler 15 kg, two injections of 10 ml, 12 h apart): 18 days
recovery, days after start of treatment (parvovirus; male German Shepherd 20 kg, two injections at 12 h interval, 2.1 g/l): 6 days
normal eating (parvovirus; male Newfoundland 28 kg, after four days): eating normally
blood in urine and vomiting (parvovirus; male Newfoundland 28 kg, two injections of 10 ml, end of second day): the blood had disappeared from the urine and the dog no longer vomited
death (parvovirus; three puppies with violent evolutive gastro-enteritis, two injections at 12 h interval): Death occurred within two days
